Literature values, collected in patent publication US9139604B2, “Antiviral phosphonate analogs” (Gilead Sciences, Inc., priority 2003, dated 2015).

Tested on: HIV
Conditions: described in the literature; kind of value (EC50/IC50) not stated

In the case of `Nc1nc(=O)c2ncn([C@@H]3C[C@H](CO)[C@H]3CO)c2[nH]1` [lubocavir], the anti-HIV activity is given as 30 µM.
